BindingDB's records for patent US12544374 (Novartis, 2026)

Legend:
[1] = biological target: T1, Histone-lysine N-methyltransferase EZH2/Polycomb protein EED/Polycomb protein SUZ12 (Human, UniProt O75530+Q15022+Q15910); assay: ELISA Assay
Procedure: ELISA protocol: Cell lysates were transferred to the wells of a 384-well plate and the final volume was adjusted to 50 μL per well with PBS. The plate was sealed, centrifuged at 2,000 rpm for 2 min and incubated at 4° C. for about 16 h. The plate was washed with TBST buffer (1×TBS (10×TBS: 24.2 g Tris (Sigma, T6066), 80 g NaCl (Sigma, S3014) to 1 L of water and adjust pH to 7.6 with HCl) with 0.1% Tween-20). Blocking buffer (TBST, 5% BSA; 50 μL per well) was added and the plate was incubated for 1 h at rt. The blocking buffer was removed and primary antibody was added (30 μL per well). […] The primary antibody was incubated in the plate at rt for 1 h. The wells were washed with TBST and incubated with secondary antibody for 1 h at rt.

[2] = biological target: T1, Histone-lysine N-methyltransferase EZH2/Polycomb protein EED/Polycomb protein SUZ12; assay: EZH2 LC-MS Assay
Procedure: Representative compounds of the invention were serially and separately diluted 3-fold in DMSO to obtain twelve concentrations. […] Solutions (6 μL) of 80 nM wild type PRC2 (wtPRC2) complex and 60 μM SAM in reaction buffer (20 mM Tris, pH 8.0, 0.1% BSA, 0.01% Triton, 0.5 mM DTT) were added to the wells that were then incubated with the test compound for 20 min. A 6 μL solution of 3 μM of the substrate peptide H3K27me1 (histone H3[21-44]-K27me1-biotin) and 6 μM regulatory peptide H3K27me3 (histone H3[21-44]-K27me3) in reaction buffer was added to initiate each reaction. […] The data were fit to a dose response equation using the program Helios to get the IC50 values of the test compound.

T1 sequence (Q15910 whole entry): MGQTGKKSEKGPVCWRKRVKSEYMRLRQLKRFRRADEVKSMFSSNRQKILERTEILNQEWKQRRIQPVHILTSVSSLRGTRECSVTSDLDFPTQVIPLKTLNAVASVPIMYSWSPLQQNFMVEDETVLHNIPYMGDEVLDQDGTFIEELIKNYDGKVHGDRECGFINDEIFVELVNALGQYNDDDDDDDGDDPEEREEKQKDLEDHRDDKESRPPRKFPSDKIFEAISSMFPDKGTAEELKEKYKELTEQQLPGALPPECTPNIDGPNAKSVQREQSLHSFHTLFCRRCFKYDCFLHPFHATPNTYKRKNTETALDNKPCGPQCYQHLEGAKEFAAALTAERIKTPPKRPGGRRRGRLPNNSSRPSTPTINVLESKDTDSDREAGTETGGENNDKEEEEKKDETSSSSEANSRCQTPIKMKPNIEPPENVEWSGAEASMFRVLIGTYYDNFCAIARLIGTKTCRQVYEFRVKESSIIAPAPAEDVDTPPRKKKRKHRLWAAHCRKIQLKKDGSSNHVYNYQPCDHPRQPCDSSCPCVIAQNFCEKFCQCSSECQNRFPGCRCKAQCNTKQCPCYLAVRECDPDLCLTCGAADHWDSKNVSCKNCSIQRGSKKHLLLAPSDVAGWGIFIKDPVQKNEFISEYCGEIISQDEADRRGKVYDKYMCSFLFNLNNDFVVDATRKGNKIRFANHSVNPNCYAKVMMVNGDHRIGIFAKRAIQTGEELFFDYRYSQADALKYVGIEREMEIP
T1 sequence (O75530 whole entry): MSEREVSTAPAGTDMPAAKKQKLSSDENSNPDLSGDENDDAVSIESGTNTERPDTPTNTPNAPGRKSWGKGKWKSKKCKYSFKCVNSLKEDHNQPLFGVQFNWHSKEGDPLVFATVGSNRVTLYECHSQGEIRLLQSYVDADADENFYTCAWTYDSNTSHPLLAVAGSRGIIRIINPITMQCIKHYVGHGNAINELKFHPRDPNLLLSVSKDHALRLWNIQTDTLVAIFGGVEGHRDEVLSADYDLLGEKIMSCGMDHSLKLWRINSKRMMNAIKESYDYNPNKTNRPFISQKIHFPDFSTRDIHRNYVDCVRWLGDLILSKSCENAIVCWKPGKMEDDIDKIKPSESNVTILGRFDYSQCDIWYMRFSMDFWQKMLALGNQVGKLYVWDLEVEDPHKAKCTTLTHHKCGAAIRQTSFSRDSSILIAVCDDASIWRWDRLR
T1 sequence (Q15022 whole entry): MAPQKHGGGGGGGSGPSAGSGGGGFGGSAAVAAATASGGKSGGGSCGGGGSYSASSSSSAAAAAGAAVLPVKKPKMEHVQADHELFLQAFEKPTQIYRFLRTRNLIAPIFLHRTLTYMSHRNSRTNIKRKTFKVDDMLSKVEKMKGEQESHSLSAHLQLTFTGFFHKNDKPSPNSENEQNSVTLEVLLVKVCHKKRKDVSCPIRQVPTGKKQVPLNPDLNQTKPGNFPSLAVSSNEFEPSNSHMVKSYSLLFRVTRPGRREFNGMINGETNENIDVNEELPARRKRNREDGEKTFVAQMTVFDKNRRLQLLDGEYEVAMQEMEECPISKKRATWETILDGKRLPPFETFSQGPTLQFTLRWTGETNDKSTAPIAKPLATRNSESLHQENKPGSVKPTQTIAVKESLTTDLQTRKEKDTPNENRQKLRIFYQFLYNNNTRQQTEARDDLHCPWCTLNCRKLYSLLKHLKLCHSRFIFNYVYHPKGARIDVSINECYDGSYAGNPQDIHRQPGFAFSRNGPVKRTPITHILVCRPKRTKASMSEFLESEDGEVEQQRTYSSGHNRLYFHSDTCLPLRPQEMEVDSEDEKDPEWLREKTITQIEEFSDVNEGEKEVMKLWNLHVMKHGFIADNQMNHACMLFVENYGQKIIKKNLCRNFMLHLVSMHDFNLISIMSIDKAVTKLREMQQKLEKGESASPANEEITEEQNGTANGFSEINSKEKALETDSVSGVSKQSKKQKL

## COCCOC(=O)Nc1cnc(NCC2CCC(Nc3ccc4ccnc(Cl)c4n3)CC2)nc1 (stereo not drawn) [US12544374, Compound C16]
[1]
  IC50: 27 nM
[2]
  IC50: 15 nM

## Clc1nccc2ccc(NC3CCC(CNc4ncc(COC5COC5)cn4)CC3)nc12 (stereo not drawn) [US12544374, Compound C35]
[2]
  IC50: 27 nM
